{
  "source": "patent US20080311589A1",
  "about": "“METHOD OF HIGH-THROUGHPUT SCREENING OF MOLECULES AND COMPOUNDS FOR THEIR EFFECTS ON BIOLOGICAL AND CHEMICAL PROCESSES” (priority 1999, published 2008)",
  "key": {"recombinant Eg5": {"biological_target": "T1, recombinant Eg5 (Xenopus laevis, UniProt P28025)", "T1 sequence (P28025 1-1067)": "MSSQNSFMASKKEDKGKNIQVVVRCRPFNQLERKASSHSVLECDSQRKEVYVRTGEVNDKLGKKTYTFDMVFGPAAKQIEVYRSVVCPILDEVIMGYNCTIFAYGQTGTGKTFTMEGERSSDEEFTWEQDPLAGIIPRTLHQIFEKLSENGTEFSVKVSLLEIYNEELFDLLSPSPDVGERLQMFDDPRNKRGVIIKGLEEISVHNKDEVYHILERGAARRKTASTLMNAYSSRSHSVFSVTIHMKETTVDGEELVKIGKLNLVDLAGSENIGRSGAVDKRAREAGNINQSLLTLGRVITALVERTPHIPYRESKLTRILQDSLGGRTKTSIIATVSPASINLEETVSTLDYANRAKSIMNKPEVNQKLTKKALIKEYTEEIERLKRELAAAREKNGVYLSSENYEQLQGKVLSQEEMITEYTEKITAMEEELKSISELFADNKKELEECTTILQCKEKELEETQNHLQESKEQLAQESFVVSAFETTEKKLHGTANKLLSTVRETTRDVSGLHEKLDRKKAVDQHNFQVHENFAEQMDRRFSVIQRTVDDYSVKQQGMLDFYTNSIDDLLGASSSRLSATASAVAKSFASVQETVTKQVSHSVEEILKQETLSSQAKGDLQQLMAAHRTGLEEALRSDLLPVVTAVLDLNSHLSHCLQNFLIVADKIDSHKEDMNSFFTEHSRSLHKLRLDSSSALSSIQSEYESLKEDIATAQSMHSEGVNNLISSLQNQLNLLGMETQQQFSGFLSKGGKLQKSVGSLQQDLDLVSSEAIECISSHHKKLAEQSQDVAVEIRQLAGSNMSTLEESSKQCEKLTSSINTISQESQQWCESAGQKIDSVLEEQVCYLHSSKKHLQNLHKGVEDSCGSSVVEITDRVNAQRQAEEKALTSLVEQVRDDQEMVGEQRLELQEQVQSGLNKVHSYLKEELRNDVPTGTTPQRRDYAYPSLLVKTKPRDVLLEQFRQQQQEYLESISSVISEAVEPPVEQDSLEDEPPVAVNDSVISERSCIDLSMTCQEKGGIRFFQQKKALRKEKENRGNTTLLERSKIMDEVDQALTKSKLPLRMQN", "test": "Eg5 driven microtubule gliding in vitro", "type": "biochemical", "settings": "for reversibility of inhibition (washout): monastrol 200 μM, then washout", "method": "FIG. 26. […] Conventional kinesin motility was not inhibited in the same assay. A. Model for spindle bipolarity. Plus-end directed motors, such as Eg5 are thought to be involved in the separation of the centrosomes and the establishment of a symmetric spindle axis. B. Inhibition of the kinesin Eg5 results in monastrol spindles. Microtubules, green; chromosomes, blue. Eg5 is depicted as homotetramer (9). C. […] After imaging Eg5 driven microtubule gliding in the presence of monastrol (200 μM), the same assay chamber was depleted of compound and the microtubule gliding recorded (Washout). […] D. Chemical structures of monastrol and DHP2.\nMitotic kinesins have been implicated in anti-parallel overlap interactions (Walczak et al., Curr. Biol. 8:903, 1998). Inhibition of the tetrameric mitotic kinesin Eg5 with antibodies induced monoasters (Sawin et al., Nature 359:540, 1992; Blangy et al., Cell 83:125, 1995; Sharp et al., J. Cell Biol. 144:125, 1999). We therefore hypothesized that Eg5 might be a target of monastrol. Like other motile kinesins, Eg5 can drive in vitro microtubule gliding (Sawin et al., Nature 359:540, 1992; Kapoor et al., Proc. Natl. Acad. Sci. USA, 1999). We tested whether monastrol inhibits Eg5 motility in vitro. […] Microtubule attachment to the Eg5 coated coverslip was maintained in the presence of monastrol (FIG. 26C). […] To test whether inhibition of the Eg5 driven microtubule gliding is specific to monastrol, we tested the closely related compound DHP2 (FIG. 26D)."}, "BS-C-1 cells": {"system": "BS-C-1 cells", "test": "fluorescence microscopy and live imaging of BS-C-1 cells", "type": "cell-based, monkey", "description": "We investigated the phenotype of mammalian cells (BS-C-I) treated with the compounds of group III. […] Our examination of the distribution of microtubules, actin, and chromatin in fixed cells by fluorescence microscopy allowed us to divide the small molecules into three classes.\nIn brief, BSCI cells were seeded on glass coverslips and cultured overnight.\nWe then asked whether the chromosomes surrounding the monoastral microtubule array maintain microtubule attachment."}},
  "data": [
    {"substance": "monastrol", "values": [
      {"measurement": "IC50", "setting": "recombinant Eg5", "value": 14, "unit": "µM"},
      {"measurement": "IC50 (inhibitory concentration), Eg5 driven microtubule motility", "setting": "recombinant Eg5", "value": 14, "unit": "µM"},
      {"measurement": "reversibility of inhibition (washout)", "setting": "recombinant Eg5", "value": "reversible in vitro and in vivo"},
      {"measurement": "reversibility of inhibition (washout)", "setting": "recombinant Eg5; listed as Monastrol", "value": "reversible in vitro"},
      {"measurement": "mitotic cells displaying the monoastral phenotype", "setting": "BS-C-1 cells", "value": "Over 90%"},
      {"measurement": "microtubule, spindle and chromosome phenotype", "setting": "BS-C-1 cells; BS-C-1 cells, 1A at 40 μM for 4 hours", "value": "the bipolar spindle was replaced with a monoastral microtubule array surrounded by a ring of chromosomes"},
      {"measurement": "chromosome attachment to microtubules", "setting": "BS-C-1 cells; live images of BS-C-1 cells", "value": "does not inhibit chromosome attachment to microtubules"}
    ]}
  ]
}
